Experiments:
[1] = target: Protein phosphatase 3 catalytic subunit alpha (Homo sapiens, UniProt Q08209); set-up: species or system Escherichia coli;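 note: inhibition of calcineurin (PP2B) enzyme activity, measured with DiFMUP as the substrate; in other assays of this panel Not Active means under 50% inhibition at 10 µM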
Cathepsin G = target: T1, Cathepsin G (Homo sapiens, UniProt P08311); format: tissue-based; conditions: neutrophil;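 note: inhibition of Cathepsin G enzyme activity, tested on an AMC-conjugated peptide substrate; in other assays of this panel Not Active means under 50% inhibition at 10 µM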
T1 sequence (P08311 whole entry): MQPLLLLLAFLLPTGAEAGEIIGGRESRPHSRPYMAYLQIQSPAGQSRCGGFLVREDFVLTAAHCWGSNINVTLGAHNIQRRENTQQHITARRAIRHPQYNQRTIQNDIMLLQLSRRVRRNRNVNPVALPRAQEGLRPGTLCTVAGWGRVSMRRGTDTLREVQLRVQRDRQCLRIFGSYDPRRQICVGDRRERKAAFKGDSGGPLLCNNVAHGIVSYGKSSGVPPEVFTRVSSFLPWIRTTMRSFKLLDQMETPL

[2] = target: Kappa-type opioid receptor (Homo sapiens, UniProt P41145); assay: DRUGMATRIX: Opiate kappa (OP2, KOP) radioligand binding (ligand: [3H] Diprenorphine); format: cell membranes, HEK293, Membrane; conditions: hek293; Not Active = under 50% inhibition at 10 µM
Kappa-type opioid receptor, sequence (P41145 whole entry): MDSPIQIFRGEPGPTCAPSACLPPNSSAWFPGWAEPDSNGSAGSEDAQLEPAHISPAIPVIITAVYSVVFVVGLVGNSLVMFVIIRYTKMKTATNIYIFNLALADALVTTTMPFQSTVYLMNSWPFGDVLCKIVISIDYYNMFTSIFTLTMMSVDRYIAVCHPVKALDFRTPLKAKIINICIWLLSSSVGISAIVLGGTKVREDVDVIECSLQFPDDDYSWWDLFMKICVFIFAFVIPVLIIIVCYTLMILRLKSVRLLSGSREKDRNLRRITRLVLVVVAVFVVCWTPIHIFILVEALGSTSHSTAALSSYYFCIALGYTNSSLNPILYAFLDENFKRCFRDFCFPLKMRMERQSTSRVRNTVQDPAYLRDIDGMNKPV

[3] = DRUGMATRIX: Platelet-Derived Growth Factor (PDGF) radioligand binding (ligand: [125I] PDGF); format: cell-based; conditions: nih3t3; Not Active = under 50% inhibition at 10 µM
[4] = target: Sigma non-opioid intracellular receptor 1 (Homo sapiens, UniProt Q99720); assay: DRUGMATRIX: Sigma1 radioligand binding (ligand: [3H] Haloperidol); format: cell membranes, Jurkat, Membrane; conditions: jurkat; Not Active = under 50% inhibition at 10 µM
Sigma non-opioid intracellular receptor 1, sequence (Q99720 whole entry): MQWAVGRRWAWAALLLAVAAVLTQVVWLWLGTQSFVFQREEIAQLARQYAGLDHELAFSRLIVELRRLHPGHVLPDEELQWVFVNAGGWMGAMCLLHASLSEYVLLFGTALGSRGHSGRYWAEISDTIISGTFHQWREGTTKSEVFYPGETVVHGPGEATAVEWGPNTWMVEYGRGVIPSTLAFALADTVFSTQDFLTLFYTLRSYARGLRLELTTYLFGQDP

[5] = DRUGMATRIX: beta-Lactamase enzyme inhibition (substrate: Nitrocefin); set-up: species or system Bacillus cereus; conditions: Not Active = under 50% inhibition at 10 µM
[6] = target: Beta-1 adrenergic receptor (Homo sapiens, UniProt P08588); assay: DRUGMATRIX: Adrenergic beta1 radioligand binding (ligand: [125I] Cyanopindolol); format: cell membranes, CHO-K1, Membrane; conditions: cho-k1; Not Active = under 50% inhibition at 10 µM
Beta-1 adrenergic receptor, sequence (P08588 whole entry): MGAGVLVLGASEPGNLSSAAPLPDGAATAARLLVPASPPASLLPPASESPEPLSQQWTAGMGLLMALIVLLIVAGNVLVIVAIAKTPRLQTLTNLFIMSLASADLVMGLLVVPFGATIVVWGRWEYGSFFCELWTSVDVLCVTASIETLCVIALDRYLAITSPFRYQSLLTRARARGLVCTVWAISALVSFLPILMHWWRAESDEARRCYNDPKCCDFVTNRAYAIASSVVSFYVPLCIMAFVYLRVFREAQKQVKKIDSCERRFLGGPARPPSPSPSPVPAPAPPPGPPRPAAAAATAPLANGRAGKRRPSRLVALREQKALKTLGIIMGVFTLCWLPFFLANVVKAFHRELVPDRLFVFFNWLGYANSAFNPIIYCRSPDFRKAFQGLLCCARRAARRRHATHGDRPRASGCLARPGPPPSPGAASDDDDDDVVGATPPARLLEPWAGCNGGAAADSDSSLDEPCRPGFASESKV

CN(C)C(=N)NC(=N)N [METFORMIN]
Not Active: IC50 [1] | IC50 (Cathepsin G) | IC50 [2] | IC50 [3] | Ki [3] | IC50 [4] | IC50 [5] | Ki [5] | IC50 [6]

CC(C)(C)NCC(O)COc1cccc2c1CC(O)C(O)C2 (stereo not drawn) [NADOLOL]
Not Active: IC50 [1] | IC50 (Cathepsin G) | IC50 [2] | IC50 [3] | Ki [3] | IC50 [4] | IC50 [5] | Ki [5] | IC50 [6]

C[C@@H]1C/C=C/C=C/C=C/C=C/[C@H](O[C@@H]2O[C@H](C)[C@@H](O)[C@H](N)[C@@H]2O)C[C@@H]2O[C@](O)(C[C@@H](O)C[C@H]3O[C@@H]3/C=C/C(=O)O1)C[C@H](O)[C@H]2C(=O)O [NATAMYCIN]
Not Active: IC50 [1] | IC50 (Cathepsin G) | IC50 [2] | IC50 [3] | Ki [3] | IC50 [4] | IC50 [5] | Ki [5] | IC50 [6]

NC(=O)c1cccnc1 [NIACINAMIDE]
Not Active: IC50 [1] | IC50 (Cathepsin G) | IC50 [2] | IC50 [3] | Ki [3] | IC50 [4] | IC50 [5] | Ki [5] | IC50 [6]

CS(=O)(=O)Nc1ccc([N+](=O)[O-])cc1Oc1ccccc1 [NIMESULIDE]
Not Active: IC50 [1] | IC50 (Cathepsin G) | IC50 [2] | IC50 [3] | Ki [3] | IC50 [4] | IC50 [5] | Ki [5] | IC50 [6]

CN1C(=O)CN=C(c2ccccc2)c2cc([N+](=O)[O-])ccc21 [NIMETAZEPAM]
Not Active: IC50 [1] | IC50 (Cathepsin G) | IC50 [2] | IC50 [3] | Ki [3] | IC50 [4] | IC50 [5] | Ki [5] | IC50 [6]

COc1ccc2c(c1OC)C(=O)O[C@@H]2[C@H]1c2c(cc3c(c2OC)OCO3)CCN1C [NOSCAPINE]
Not Active: IC50 [1] | IC50 (Cathepsin G) | IC50 [2] | IC50 [3] | Ki [3] | IC50 [4] | IC50 [5] | Ki [5] | IC50 [6]

NC(=O)N1c2ccccc2CC(=O)c2ccccc21 [OXCARBAZEPINE]
Not Active: IC50 [1] | IC50 (Cathepsin G) | IC50 [2] | IC50 [3] | Ki [3] | IC50 [4] | IC50 [5] | Ki [5] | IC50 [6]

COc1ccnc(C[S+]([O-])c2nc3ccc(OC(F)F)cc3[nH]2)c1OC (stereo not drawn) [PANTOPRAZOLE]
Not Active: IC50 [1] | IC50 (Cathepsin G) | IC50 [2] | IC50 [3] | Ki [3] | IC50 [4] | IC50 [5] | Ki [5] | IC50 [6]

N=C(N)c1ccc(OCCCCCOc2ccc(C(=N)N)cc2)cc1 [PENTAMIDINE]
Not Active: IC50 [1] | IC50 (Cathepsin G) | IC50 [2] | IC50 [3] | Ki [3] | IC50 [4] | IC50 [5] | Ki [5] | IC50 [6]

CCc1ccc(CCOc2ccc(CC3SC(=O)NC3=O)cc2)nc1 (stereo not drawn) [PIOGLITAZONE]
Not Active: IC50 [1] | IC50 (Cathepsin G) | IC50 [2] | IC50 [3] | Ki [3] | IC50 [4] | IC50 [5] | Ki [5] | IC50 [6]

CCCNC(C)C(=O)Nc1ccccc1C (stereo not drawn) [PRILOCAINE]
Not Active: IC50 [1] | IC50 (Cathepsin G) | IC50 [2] | IC50 [3] | Ki [3] | IC50 [4] | IC50 [5] | Ki [5] | IC50 [6]

CCN(CC)CCNC(=O)c1ccc(N)cc1 [PROCAINAMIDE]
Not Active: IC50 [1] | IC50 (Cathepsin G) | IC50 [2] | IC50 [3] | Ki [3] | IC50 [4] | IC50 [5] | Ki [5] | IC50 [6]

CCN(CC)CCCC(C)Nc1c2ccc(Cl)cc2nc2ccc(OC)cc12 (stereo not drawn) [QUINACRINE]
Not Active: IC50 [1] | IC50 (Cathepsin G) | IC50 [2] | IC50 [3] | Ki [3] | IC50 [4] | IC50 [5] | Ki [5] | IC50 [6]

C[C@]12C=CC(=O)C=C1CC[C@H]1[C@@H]3C[C@@H](O)[C@](O)(C(=O)CO)[C@@]3(C)C[C@H](O)[C@@]12F [TRIAMCINOLONE]
Not Active: IC50 [1] | IC50 (Cathepsin G) | IC50 [2] | IC50 [3] | Ki [3] | IC50 [4] | IC50 [5] | Ki [5] | IC50 [6]

CC[C@]1(O)C[C@@H]2CN(CCc3c([nH]c4ccccc34)[C@@](C(=O)OC)(c3cc4c(cc3OC)N(C)[C@H]3[C@@](O)(C(N)=O)[C@H](O)[C@]5(CC)C=CCN6CC[C@]43[C@@H]65)C2)C1 [VINDESINE]
Not Active: IC50 [1] | IC50 (Cathepsin G) | IC50 [2] | IC50 [3] | Ki [3] | IC50 [4] | IC50 [5] | Ki [5] | IC50 [6]

CCN(C(C)=O)c1cccc(-c2ccnc3c(C#N)cnn23)c1 [ZALEPLON]
Not Active: IC50 [1] | IC50 (Cathepsin G) | IC50 [2] | IC50 [3] | Ki [3] | IC50 [4] | IC50 [5] | Ki [5] | IC50 [6]

Reference: ChEMBL document CHEMBL1909046, “DrugMatrix in vitro pharmacology data”
